Laboratory results reported in the supplement of paper PMC4862054.

What was measured:
Conditions in all cases: incubation time: 72 h
CAL-120 = assay: drug sensitivity score (DSS), CellTiter-Glo (DSS (AUC-based score)); higher = stronger drug effect (viability inhibition or cytotoxicity); extreme values may be limits of the assay
In short: (§1)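 Breast cancer cell lines (20 µl suspension) were seeded into 384-well plates holding compound at 5 concentrations in 10-fold steps over a compound-specific 10,000-fold range, then incubated 72 h. CellTox Green fluorescence (485/520 nm) was read first, then CellTiter-Glo luminescence after 10 min at room temperature. Each plate was normalised to 0.1 % DMSO and a positive kill control. The drug sensitivity score was calculated from the area under the fitted dose-response curve.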

MDA-MB-453 [1] = assay: as above
In short: as §1

MDA-MB-231 [2] = assay: as above
In short: as §1

HCC1599 = assay: as above
In short: as §1

HDQ-P1 = assay: as above
In short: as §1

Hs578T = assay: as above
In short: as §1

MCF-10A = assay: as above
In short: as §1

CAL-148 [3] = assay: as above
In short: as §1

MFM-223 [4] = assay: as above
In short: as §1

HCC1143 = assay: as above
In short: as §1

CAL-85-1 [5] = assay: as above
In short: as §1

HCC1937 = assay: as above
In short: as §1

BT-549 [6] = assay: as above
In short: as §1

MDA-MB-468 [7] = assay: as above
In short: as §1

MDA-MB-436 = assay: as above
In short: as §1

MDA-MB-453 [8] = assay: normalised viability (% of control), CellTiter-Blue; higher = more viable cells (about 100 = DMSO control)
In short: (§2)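 Each entry is normalised viability at a single listed concentration within a series. It comes from breast cancer cell lines incubated 72 h with compound in 384-well plates, then measured with CellTiter-Blue fluorescence at 560/590 nm. Every plate was normalised between vehicle (100) and a positive kill control (0).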

MDA-MB-231 [9] = assay: as above
In short: as §2

SK-BR-3 = assay: as above
In short: as §2

CAL-148 [10] = assay: as above
In short: as §2

MFM-223 [11] = assay: as above
In short: as §2

BT-474 = assay: as above
In short: as §2

CAL-85-1 [12] = assay: as above
In short: as §2

BT-549 [13] = assay: as above
In short: as §2

MDA-MB-468 [14] = assay: as above
In short: as §2

CAL-51 = assay: as above
In short: as §2

`C/C(=C\c1csc(C)n1)[C@@H]1C[C@@H]2O[C@]2(C)CCC[C@H](C)[C@H](O)[C@@H](C)C(=O)C(C)(C)[C@@H](O)CC(=O)N1` [Ixabepilone] was tested, and the drug sensitivity score (CAL-120) was 0, the drug sensitivity score (MDA-MB-453 [1]) was 0 and the drug sensitivity score (MDA-MB-231 [2]) was 0. It also gave a drug sensitivity score (HCC1599) of 0, a drug sensitivity score (HDQ-P1) of 0 and a drug sensitivity score (Hs578T) of 0. The drug sensitivity score (MCF-10A) was 0, the drug sensitivity score (CAL-148 [3]) was 0 and the drug sensitivity score (MFM-223 [4]) was 0. For the same molecule, the drug sensitivity score (HCC1143) was 0, the drug sensitivity score (CAL-85-1 [5]) was 2.2 and the drug sensitivity score (HCC1937) was 0. The drug sensitivity score (BT-549 [6]) was 13.9, the drug sensitivity score (MDA-MB-468 [7]) was 13.9 and the drug sensitivity score (MDA-MB-436) was 0. For the same molecule, the normalised viability (MDA-MB-453 [8]; 0.3 nM) was 108%, the normalised viability (MDA-MB-453 [8]; 3 nM) was 87.4% and the normalised viability (MDA-MB-453 [8]; 10 nM) was 87.3%. The normalised viability (MDA-MB-231 [9]; 1 nM) was 84.7%, the normalised viability (MDA-MB-231 [9]; 100 nM) was 51.6% and the normalised viability (MDA-MB-231 [9]; 1000 nM) was 16.8%. It also gave a normalised viability (SK-BR-3; 1 nM) of 87.8%, a normalised viability (SK-BR-3; 100 nM) of 82.5% and a normalised viability (SK-BR-3; 1000 nM) of 12.6%. It also gave a normalised viability (CAL-148 [10]; 0.3 nM) of 95.2%, a normalised viability (CAL-148 [10]; 3 nM) of 97.1% and a normalised viability (CAL-148 [10]; 10 nM) of 92.8%. The normalised viability (MFM-223 [11]; 1 nM) was 76.8%, the normalised viability (MFM-223 [11]; 100 nM) was 75.8% and the normalised viability (MFM-223 [11]; 1000 nM) was 31.6%. For the same molecule, the normalised viability (BT-474; 1 nM) was 109%, the normalised viability (BT-474; 100 nM) was 115% and the normalised viability (BT-474; 1000 nM) was 26%. The normalised viability (CAL-85-1 [12]; 0.3 nM) was 83.4%, the normalised viability (CAL-85-1 [12]; 3 nM) was 87.8% and the normalised viability (CAL-85-1 [12]; 10 nM) was 88.9%. The normalised viability (BT-549 [13]; 1 nM) was 69.2%, the normalised viability (BT-549 [13]; 100 nM) was 96.9% and the normalised viability (BT-549 [13]; 1000 nM) was 19.6%. The normalised viability (MDA-MB-468 [14]; 1 nM) was 97.8%, the normalised viability (MDA-MB-468 [14]; 100 nM) was 88.5% and the normalised viability (MDA-MB-468 [14]; 1000 nM) was 45.4%. It also gave a normalised viability (CAL-51; 0.3 nM) of 110%, a normalised viability (CAL-51; 3 nM) of 107% and a normalised viability (CAL-51; 10 nM) of 107%.

Molecule `C=CCn1c(=O)c2cnc(Nc3ccc(N4CCN(C)CC4)cc3)nc2n1-c1cccc(C(C)(C)O)n1` [MK1775] has a drug sensitivity score (CAL-120) of 12.1, a drug sensitivity score (MDA-MB-453 [1]) of 14.6 and a drug sensitivity score (MDA-MB-231 [2]) of 15.7. For the same molecule, the drug sensitivity score (HCC1599) was 19.9, the drug sensitivity score (HDQ-P1) was 14.9 and the drug sensitivity score (Hs578T) was 14.5. It also gave a drug sensitivity score (MCF-10A) of 9.77, a drug sensitivity score (CAL-148 [3]) of 19.3 and a drug sensitivity score (MFM-223 [4]) of 12.4. It also gave a drug sensitivity score (HCC1143) of 11.6, a drug sensitivity score (CAL-85-1 [5]) of 16.2 and a drug sensitivity score (HCC1937) of 12.4. It also gave a drug sensitivity score (BT-549 [6]) of 15.7, a drug sensitivity score (MDA-MB-468 [7]) of 12.5 and a drug sensitivity score (MDA-MB-436) of 16.7. For the same molecule, the normalised viability (MDA-MB-453 [8]; 3 nM) was 89.6%, the normalised viability (MDA-MB-453 [8]; 30 nM) was 86.3% and the normalised viability (MDA-MB-453 [8]; 100 nM) was 88.7%. For the same molecule, the normalised viability (MDA-MB-231 [9]; 10 nM) was 84%, the normalised viability (MDA-MB-231 [9]; 1000 nM) was 26.9% and the normalised viability (MDA-MB-231 [9]; 10000 nM) was 16.9%. For the same molecule, the normalised viability (SK-BR-3; 10 nM) was 79.8%, the normalised viability (SK-BR-3; 1000 nM) was 9.36% and the normalised viability (SK-BR-3; 10000 nM) was 10.2%. The normalised viability (CAL-148 [10]; 3 nM) was 85.1%, the normalised viability (CAL-148 [10]; 30 nM) was 92.8% and the normalised viability (CAL-148 [10]; 100 nM) was 81.5%. The normalised viability (MFM-223 [11]; 10 nM) was 102%, the normalised viability (MFM-223 [11]; 1000 nM) was 44.3% and the normalised viability (MFM-223 [11]; 10000 nM) was 40.1%. For the same molecule, the normalised viability (BT-474; 10 nM) was 94%, the normalised viability (BT-474; 1000 nM) was 33.9% and the normalised viability (BT-474; 10000 nM) was 35.7%. For the same molecule, the normalised viability (CAL-85-1 [12]; 3 nM) was 79.6%, the normalised viability (CAL-85-1 [12]; 30 nM) was 80.9% and the normalised viability (CAL-85-1 [12]; 100 nM) was 78.6%. It also gave a normalised viability (BT-549 [13]; 10 nM) of 103%, a normalised viability (BT-549 [13]; 1000 nM) of 31% and a normalised viability (BT-549 [13]; 10000 nM) of 9.32%. The normalised viability (MDA-MB-468 [14]; 10 nM) was 110%, the normalised viability (MDA-MB-468 [14]; 1000 nM) was 46.3% and the normalised viability (MDA-MB-468 [14]; 10000 nM) was 10.1%. It also gave a normalised viability (CAL-51; 3 nM) of 98.9%, a normalised viability (CAL-51; 30 nM) of 90.8% and a normalised viability (CAL-51; 100 nM) of 87%.
